One data set deals with E. coli, NIHJ. In words: antibacterial activity (in vitro), Minimum Inhibitory Concentration. Format: cell-based. The following applies: Escherichia coli, 10^6 /ml of bacteria were seeded, syn isomers. The source says: (§1) The antibacterial activity (in vitro) of the preferred compounds of this invention are shown in the following Table 1 in comparison with known compounds having a structure similar to that of the compounds of this invention. All compounds of Table 1 are syn isomers.
(§2) Minimum Inhibitory Concentration (MIC, mcg/ml) (10^6 /ml of bacteria

A further data set has as its system Pr. vulgaris, 08601. The description is as above. As to conditions: Proteus vulgaris, 10^6 /ml of bacteria were seeded, syn isomers. In kind it is cell-based.
Description: as §1, §2

Another data set deals with Ps. aeruginosa, 32104. Described as above. Format: cell-based. The following applies: Pseudomonas aeruginosa, 10^6 /ml of bacteria were seeded, syn isomers.
Description: as §1, §2

Another data set relates to Ps. aeruginosa, 32121. The description is as above. In kind it is cell-based. As to conditions: Pseudomonas aeruginosa, 10^6 /ml of bacteria were seeded, syn isomers.
Description: as §1, §2

The next data set has as its system S. aureus, 209p. The description is as above. Format: cell-based. The following applies: Staphylococcus aureus, 10^6 /ml of bacteria were seeded, syn isomers.
Description: as §1, §2

The subject of the next data set is Ser. marcescens, 10104. The description is as above. In kind it is cell-based. As to conditions: Serratia marcescens, 10^6 /ml of bacteria were seeded, syn isomers.
Description: as §1, §2

Data set [1] is described as follows: acute toxicity in mice (i.v.). The following applies: mouse, in vivo, iv.

By MIC is commonly meant the lowest concentration that inhibits growth of the organism. A low value points to inhibition by little substance. A word on the LD50: it is the dose at which mortality reaches 50%.

In brackets after ≈: the same amount, converted by molar mass. Counter-ions that a name gives are not always drawn.

Take `Nc1nc(/C(=N/OCc2c[nH]cn2)C(=O)N[C@@H]2C(=O)N3C(C(=O)[O-])=C(C[n+]4ccccc4)CS[C@H]23)cs1` [IA, 7β-(2-(2-aminothiazol-4-yl)-2-((imidazol-4-yl)methoxyimino)acetamido)-3-(1-pyridinio)methyl-3-cephem-4-carboxylate trihydrochloride]: the MIC against E. coli, NIHJ came to 0.1 µg/mL; with Pr. vulgaris, 08601 it was 0.1 µg/mL; with Ps. aeruginosa, 32104, 1.56 µg/mL; with Ps. aeruginosa, 32121 it was 1.56 µg/mL; in the data set with S. aureus, 209p it was 0.2 µg/mL; against Ser. marcescens, 10104, 0.1 µg/mL. The compound also came in with an LD50 in data set [1] greater than 2500 mg/kg.

For the compound `NC(=O)c1cc[n+](CC2=C(C(=O)[O-])N3C(=O)[C@@H](NC(=O)/C(=N\OCc4c[nH]cn4)c4csc(N)n4)[C@H]3SC2)cc1` [IB, 7β-(2-(2-aminothiazol-4-yl)-2-((imidazol-4-yl)methoxyimino)acetamido)-3-(4-carbamoyl-1-pyridinio)methyl-3-cephem-4-carboxylate trihydrochloride], the minimal inhibitory concentration (MIC) in the data set with E. coli, NIHJ is less than 0.1 µg/mL; against Pr. vulgaris, 08601, 0.2 µg/mL; in the data set with Ps. aeruginosa, 32104, 1.56 µg/mL; in the data set with Ps. aeruginosa, 32121, 12.5 µg/mL; in the data set on S. aureus, 209p it was 1.56 µg/mL; against Ser. marcescens, 10104, 0.2 µg/mL.

As for `Nc1nc(/C(=N/OCc2cc[nH]n2)C(=O)N[C@@H]2C(=O)N3C(C(=O)[O-])=C(C[n+]4ccccc4)CS[C@H]23)cs1` [IC, 7β-(2-(2-aminothiazol-4-yl)-2-((pyrazol-3-yl)methoxyimino)acetamido)-3-(1-pyridinio)methyl-3-cephem-4-carboxylate], the MIC is less than 0.1 µg/mL in the data set with E. coli, NIHJ; 0.1 µg/mL (≈ 0.185 µM) with Pr. vulgaris, 08601; 1.56 µg/mL (≈ 2.89 µM) against Ps. aeruginosa, 32104; 3.13 µg/mL (≈ 5.79 µM) in the data set with Ps. aeruginosa, 32121; 0.39 µg/mL (≈ 0.721 µM) in the data set on S. aureus, 209p; 0.2 µg/mL (≈ 0.37 µM) with Ser. marcescens, 10104. Besides, in data set [1], the median lethal dose (LD50) was greater than 2000 mg/kg.

With `Cn1nnnc1SCC1=C(C(=O)O)N2C(=O)[C@@H](NC(=O)/C(=N\OCc3c[nH]cn3)c3csc(N)n3)[C@H]2SC1` [ID, 7β-(2-(2-aminothiazol-4-yl)-2-((imidazol-4-yl)methoxyimino)acetamido)-3-(1-methyl-1H-tetrazol-5-yl)thiomethyl-3-cephem-4-carboxylic acid dihydrochloride], the MIC in the data set with E. coli, NIHJ was less than 0.1 µg/mL; against Pr. vulgaris, 08601 it was less than 0.1 µg/mL; in the data set with Ps. aeruginosa, 32104 it was 12.5 µg/mL; in the data set with Ps. aeruginosa, 32121 it was 3.13 µg/mL; with S. aureus, 209p, 0.78 µg/mL; in the data set on Ser. marcescens, 10104, 0.39 µg/mL.

As to `Nc1nc(/C(=N/OCc2cn[nH]c2)C(=O)N[C@@H]2C(=O)N3C(C(=O)[O-])=C(C[n+]4ccccc4)CS[C@H]23)cs1` [IE, 7β-(2-(2-aminothiazol-4-yl)-2-((pyrazol-4-yl)methoxyimino)acetamido)-3-(1-pyridinio)methyl-3-cephem-4-carboxylate], the MIC against E. coli, NIHJ was less than 0.1 µg/mL; against Pr. vulgaris, 08601, 0.1 µg/mL (≈ 0.185 µM); with Ps. aeruginosa, 32104, 6.25 µg/mL (≈ 11.6 µM); in the data set on Ps. aeruginosa, 32121, 3.13 µg/mL (≈ 5.79 µM); against S. aureus, 209p it was 0.2 µg/mL (≈ 0.37 µM); in the data set on Ser. marcescens, 10104, 0.2 µg/mL (≈ 0.37 µM).

`Cc1[nH]cnc1CO/N=C(\C(=O)N[C@@H]1C(=O)N2C(C(=O)[O-])=C(C[n+]3ccccc3)CS[C@H]12)c1csc(N)n1` [IF, 7β-(2-(2-aminothiazol-4-yl)-2-((5-methylimidazol-4-yl)methoxyimino)acetamido)-3-(1-pyridino)methyl-3-cephem-4-carboxylate trihydrochloride]: the MIC against E. coli, NIHJ was less than 0.1 µg/mL; in the data set with Pr. vulgaris, 08601, 0.1 µg/mL; with Ps. aeruginosa, 32104, 3.13 µg/mL; with Ps. aeruginosa, 32121, 3.13 µg/mL; in the data set on S. aureus, 209p, 0.78 µg/mL; with Ser. marcescens, 10104, 0.2 µg/mL.

For `Cc1cc[n+](CC2=C(C(=O)[O-])N3C(=O)[C@@H](NC(=O)/C(=N\OCc4c[nH]cn4)c4csc(N)n4)[C@H]3SC2)cc1` [IG, 7β-(2-(2-aminothiazol-4-yl)-2-((imidazol-4-yl)methoxyimino)acetamido)-3-(4-methyl-1-pyridinio)methyl-3-cephem-4-carboxylate trihydrochloride], the MIC against E. coli, NIHJ is less than 0.1 µg/mL; in the data set with Pr. vulgaris, 08601 it was 0.2 µg/mL; against Ps. aeruginosa, 32104, 3.13 µg/mL; against Ps. aeruginosa, 32121, 3.13 µg/mL; in the data set with S. aureus, 209p, 1.56 µg/mL; with Ser. marcescens, 10104 it was 0.1 µg/mL.

With `CC(=O)OCC1=C(C(=O)O)N2C(=O)[C@@H](NC(=O)/C(=N\OCc3c[nH]cn3)c3csc(N)n3)[C@H]2SC1` [IH, 7β-(2-(2-aminothiazol-4-yl)-2-((imidazol-4-yl)methoxyimino)acetamido)-3-acetoxymethyl-3-cephem-4-carboxylic acid dihydrochloride], the MIC in the data set with E. coli, NIHJ is less than 0.1 µg/mL; in the data set on Pr. vulgaris, 08601, less than 0.1 µg/mL; in the data set on Ps. aeruginosa, 32104, 12.5 µg/mL; against Ps. aeruginosa, 32121 it was 6.25 µg/mL; in the data set on S. aureus, 209p, 0.78 µg/mL; against Ser. marcescens, 10104, 0.78 µg/mL.

Consider `CO/N=C(\C(=O)N[C@@H]1C(=O)N2C(C(=O)O)=C(COC(C)=O)CS[C@H]12)c1csc(N)n1` [a, Cephotaxim, reference compound], for which the minimal inhibitory concentration (MIC) against E. coli, NIHJ is less than 0.1 µg/mL; against Pr. vulgaris, 08601, less than 0.1 µg/mL; with Ps. aeruginosa, 32104, 25 µg/mL (≈ 54.9 µM); against Ps. aeruginosa, 32121 it was 12.5 µg/mL (≈ 27.4 µM); against S. aureus, 209p, 3.13 µg/mL (≈ 6.87 µM); with Ser. marcescens, 10104, 0.39 µg/mL (≈ 0.856 µM).

On to `Nc1nc(/C(=N/OCc2nnn[nH]2)C(=O)N[C@@H]2C(=O)N3C(C(=O)[O-])=C(C[n+]4ccccc4)CS[C@H]23)cs1` [b, 7β-(2-(2-aminothiazol-4-yl)-2-((1H-tetrazol-5-yl)methoxyimino)acetamido)-3-pyridiniomethyl-3-cephem-4-carboxylate, reference compound], for which the MIC in the data set with E. coli, NIHJ amounted to 0.1 µg/mL (≈ 0.184 µM); in the data set on Pr. vulgaris, 08601 it was 0.1 µg/mL (≈ 0.184 µM); in the data set with Ps. aeruginosa, 32104 it was 12.5 µg/mL (≈ 23 µM); with Ps. aeruginosa, 32121 it was 50 µg/mL (≈ 92.2 µM); against S. aureus, 209p, 3.13 µg/mL (≈ 5.77 µM); against Ser. marcescens, 10104, 0.39 µg/mL (≈ 0.719 µM).

As to `Nc1nc(/C(=N/OCc2ncc[nH]2)C(=O)N[C@@H]2C(=O)N3C(C(=O)[O-])=C(C[n+]4ccccc4)CS[C@H]23)cs1` [c, 7β-(2-(2-aminothiazol-4-yl)-2-((imidazol-2-yl)methoxyimino)acetamido)-3-pyridiniomethyl-3-cephem-4-carboxylate, reference compound], the minimal inhibitory concentration (MIC) with E. coli, NIHJ worked out at 0.2 µg/mL (≈ 0.37 µM); with Pr. vulgaris, 08601 it was 0.39 µg/mL (≈ 0.721 µM); with Ps. aeruginosa, 32104 it was 6.25 µg/mL (≈ 11.6 µM); in the data set with Ps. aeruginosa, 32121 it was 25 µg/mL (≈ 46.2 µM); against S. aureus, 209p it was 1.56 µg/mL (≈ 2.89 µM); against Ser. marcescens, 10104 it was 0.2 µg/mL (≈ 0.37 µM).

Values taken from patent publication US4603198A, “Cephalosporin derivatives” (Daiichi Seiyaku Co., Ltd., priority 1982, dated 1986).
